Among the data in paper PMC10318143, “Optimized bisubstrate inhibitors for the actin N-terminal acetyltransferase NAA80” (Frontiers in Chemistry, 2023) are IC50 values, retold here.

As usually defined, the IC50 is the concentration that gives 50% inhibition.

Test [1] deals with T1, MBP-hNAA80 (Homo sapiens, UniProt Q93015).
T1 construct: made in house; host or cells: Escherichia coli BL21 star
T1 sequence (Q93015 1-286): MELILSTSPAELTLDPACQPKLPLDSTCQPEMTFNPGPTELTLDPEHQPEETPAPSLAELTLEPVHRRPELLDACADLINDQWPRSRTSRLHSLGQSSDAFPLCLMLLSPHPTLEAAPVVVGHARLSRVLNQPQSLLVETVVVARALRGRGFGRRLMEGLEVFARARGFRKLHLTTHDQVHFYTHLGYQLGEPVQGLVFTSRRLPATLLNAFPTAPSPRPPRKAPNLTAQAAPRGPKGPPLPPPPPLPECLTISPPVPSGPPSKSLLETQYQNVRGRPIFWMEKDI
Also on record: method as in Goris et al., 2018. The conditions noted are these: DTNB assay; ± standard deviation; ref Goris et al., 2018; cited from earlier work.

Test [2] deals with T1, MBP-hNAA80. As to the kind of experiment: In vitro DTNB Nt-acetyltransferase inhibitor assay. The conditions noted are these: 300 μM Ac-CoA, 300 μM substrate peptide, Tris pH 8.5, triplicates, ± standard deviation. The test is classed as biochemical. How it is done:
The enzymatic activity of MBP-hNAA80 was measured using a 5,5′-dithiobis-(2-nitrobenzoic acid, DTNB) assay as described previously by Foyn et al. ([Foyn et al., 2017]) and Drazic et al. ([Drazic et al., 2018]) Briefly, the thiol group exposed in the enzymatic product CoA cleaves DTNB and produces 2-nitro-5-thiobenzonate (TNB^−) which ionize to TNB^2- in neutral or alkaline pH and is readily quantified by measuring the absorbance at 412 nm.
An in vitro DTNB assay with enzyme (10–600 nM), 300 μM Ac-CoA, 300 μM substrate peptide, acetylation buffer (Tris, pH 8.5), and at least nine different inhibitor concentrations ranging from 0 to 500 μM was used to calculate the IC50 value for each bisubstrate inhibitor applied in the assay. The reaction was carried out as previously described ([Drazic et al., 2018]; [Goris et al., 2018]), and within a timeframe of 15–50 min. All measurements were performed in triplicates.

Where two headings read alike, the source gives them in different places. *1 amine or outer side, *2 acyl side, *3 side chain or, on linkers, in order; H or OH if unused. Where a SMILES comes first, the peptide text is derived from it. [ ]: non-standard residue; d: D form. The star is where a group is joined. Pantoyl(4-O-3'-P-ADP) = CC(C)(COP(=O)(O)OP(=O)(O)OC[C@H]1O[C@@H](n2cnc3c(N)ncnc32)[C@H](O)[C@@H]1OP(=O)(O)O)[C@@H](O)C(=O)*; NHCH2CH2SCH2CO = O=C(CSCCN[*:1])[*:2]; βAla = NCCC(=O)O

Turning to `CC[C@H](C)[C@H](NC(=O)[C@H](CC(=O)O)NC(=O)[C@H](CC(=O)O)NC(=O)[C@H](CC(=O)O)NC(=O)CSCCNC(=O)CCNC(=O)[C@H](O)C(C)(C)COP(=O)(O)OP(=O)(O)OC[C@H]1O[C@@H](n2cnc3c(N)ncnc32)[C@H](O)[C@@H]1OP(=O)(O)O)C(N)=O` [CoA-DDDI-NH2, CoA-Ac-DDDI-NH2] ({Pantoyl(4-O-3'-P-ADP)-βAla}-[NHCH2CH2SCH2CO]DDDI-NH2), at MBP-hNAA80 [1], the IC50 was 0.38 ± 0.1 µM.
`CC[C@H](C)[C@H](NC(=O)[C@H](CCC(=O)O)NC(=O)[C@H](CC(=O)O)NC(=O)[C@H](CC(=O)O)NC(=O)CSCCNC(=O)CCNC(=O)[C@H](O)C(C)(C)COP(=O)(O)OP(=O)(O)OC[C@H]1O[C@@H](n2cnc3c(N)ncnc32)[C@H](O)[C@@H]1OP(=O)(O)O)C(N)=O` [CoA-DDEI-NH2, CoA-Ac-DDEI-NH2] ({Pantoyl(4-O-3'-P-ADP)-βAla}-[NHCH2CH2SCH2CO]DDEI-NH2) yielded a half-maximal inhibitory concentration (IC50) at MBP-hNAA80 [2] of 2.67 ± 0.67 µM.
As for `CC[C@H](C)[C@H](NC(=O)[C@H](CCC(=O)O)NC(=O)[C@H](CCC(=O)O)NC(=O)[C@H](CC(=O)O)NC(=O)CSCCNC(=O)CCNC(=O)[C@H](O)C(C)(C)COP(=O)(O)OP(=O)(O)OC[C@H]1O[C@@H](n2cnc3c(N)ncnc32)[C@H](O)[C@@H]1OP(=O)(O)O)C(N)=O` [CoA-DEEI-NH2, CoA-Ac-DEEI-NH2] ({Pantoyl(4-O-3'-P-ADP)-βAla}-[NHCH2CH2SCH2CO]DEEI-NH2), the IC50 against MBP-hNAA80 [2] is 1.22 ± 0.33 µM.
Regarding `CC(C)C[C@H](NC(=O)[C@H](CCC(=O)O)NC(=O)[C@H](CCC(=O)O)NC(=O)[C@H](CC(=O)O)NC(=O)CSCCNC(=O)CCNC(=O)[C@H](O)C(C)(C)COP(=O)(O)OP(=O)(O)OC[C@H]1O[C@@H](n2cnc3c(N)ncnc32)[C@H](O)[C@@H]1OP(=O)(O)O)C(N)=O` [CoA-DEEL-NH2, CoA-Ac-DEEL-NH2] ({Pantoyl(4-O-3'-P-ADP)-βAla}-[NHCH2CH2SCH2CO]DEEL-NH2), on MBP-hNAA80 [2], it took 4.73 ± 1.43 µM to reach half-maximal inhibition (IC50).
Still for that read-out and setting: to `CC[C@H](C)[C@H](NC(=O)[C@H](CC(=O)O)NC(=O)[C@H](CC(=O)O)NC(=O)[C@H](CCC(=O)O)NC(=O)CSCCNC(=O)CCNC(=O)[C@H](O)C(C)(C)COP(=O)(O)OP(=O)(O)OC[C@H]1O[C@@H](n2cnc3c(N)ncnc32)[C@H](O)[C@@H]1OP(=O)(O)O)C(N)=O` [CoA-EDDI-NH2, CoA-Ac-EDDI-NH2] ({Pantoyl(4-O-3'-P-ADP)-βAla}-[NHCH2CH2SCH2CO]EDDI-NH2) belongs 0.12 ± 0.05 µM; to `CC[C@H](C)[C@H](NC(=O)[C@H](CCC(=O)O)NC(=O)[C@H](CC(=O)O)NC(=O)[C@H](CCC(=O)O)NC(=O)CSCCNC(=O)CCNC(=O)[C@H](O)C(C)(C)COP(=O)(O)OP(=O)(O)OC[C@H]1O[C@@H](n2cnc3c(N)ncnc32)[C@H](O)[C@@H]1OP(=O)(O)O)C(N)=O` [CoA-EDEI-NH2, CoA-Ac-EDEI-NH2] ({Pantoyl(4-O-3'-P-ADP)-βAla}-[NHCH2CH2SCH2CO]EDEI-NH2), 0.76 ± 0.18 µM; to `CC(C)C[C@H](NC(=O)[C@H](CCC(=O)O)NC(=O)[C@H](CC(=O)O)NC(=O)[C@H](CCC(=O)O)NC(=O)CSCCNC(=O)CCNC(=O)[C@H](O)C(C)(C)COP(=O)(O)OP(=O)(O)OC[C@H]1O[C@@H](n2cnc3c(N)ncnc32)[C@H](O)[C@@H]1OP(=O)(O)O)C(N)=O` [CoA-EDEL-NH2, CoA-Ac-EDEL-NH2] ({Pantoyl(4-O-3'-P-ADP)-βAla}-[NHCH2CH2SCH2CO]EDEL-NH2), 0.15 ± 0.02 µM.
On MBP-hNAA80 [2], `CC(C)C[C@H](NC(=O)[C@H](CCC(N)=O)NC(=O)[C@H](CC(=O)O)NC(=O)[C@H](CCC(=O)O)NC(=O)CSCCNC(=O)CCNC(=O)[C@H](O)C(C)(C)COP(=O)(O)OP(=O)(O)OC[C@H]1O[C@@H](n2cnc3c(N)ncnc32)[C@H](O)[C@@H]1OP(=O)(O)O)C(N)=O` [CoA-EDQL-NH2, CoA-Ac-EDQL-NH2] ({Pantoyl(4-O-3'-P-ADP)-βAla}-[NHCH2CH2SCH2CO]EDQL-NH2) had an IC50 of 0.85 ± 0.05 µM.
The same measure, in the same setting: the figure for `CC[C@H](C)[C@H](NC(=O)[C@H](CC(=O)O)NC(=O)[C@H](CCC(=O)O)NC(=O)[C@H](CCC(=O)O)NC(=O)CSCCNC(=O)CCNC(=O)[C@H](O)C(C)(C)COP(=O)(O)OP(=O)(O)OC[C@H]1O[C@@H](n2cnc3c(N)ncnc32)[C@H](O)[C@@H]1OP(=O)(O)O)C(N)=O` [CoA-EEDI-NH2, CoA-Ac-EEDI-NH2] ({Pantoyl(4-O-3'-P-ADP)-βAla}-[NHCH2CH2SCH2CO]EEDI-NH2) is 0.17 ± 0.04 µM; for `CC(C)C[C@H](NC(=O)[C@H](CC(=O)O)NC(=O)[C@H](CCC(=O)O)NC(=O)[C@H](CCC(=O)O)NC(=O)CSCCNC(=O)CCNC(=O)[C@H](O)C(C)(C)COP(=O)(O)OP(=O)(O)OC[C@H]1O[C@@H](n2cnc3c(N)ncnc32)[C@H](O)[C@@H]1OP(=O)(O)O)C(N)=O` [CoA-EEDL-NH2, CoA-Ac-EEDL-NH2] ({Pantoyl(4-O-3'-P-ADP)-βAla}-[NHCH2CH2SCH2CO]EEDL-NH2) it is 1.76 ± 0.52 µM; for `CC(C)C[C@H](NC(=O)[C@H](CCC(=O)O)NC(=O)[C@H](CCC(=O)O)NC(=O)[C@H](CCC(=O)O)NC(=O)CSCCNC(=O)CCNC(=O)[C@H](O)C(C)(C)COP(=O)(O)OP(=O)(O)OC[C@H]1O[C@@H](n2cnc3c(N)ncnc32)[C@H](O)[C@@H]1OP(=O)(O)O)C(N)=O` [CoA-EEEL-NH2, CoA-Ac-EEEL-NH2] ({Pantoyl(4-O-3'-P-ADP)-βAla}-[NHCH2CH2SCH2CO]EEEL-NH2) it is 1.16 ± 0.12 µM.
For `CC(C)C[C@H](NC(=O)[C@H](CCC(=O)O)NC(=O)[C@H](CO)NC(=O)[C@H](CCC(=O)O)NC(=O)CSCCNC(=O)CCNC(=O)[C@H](O)C(C)(C)COP(=O)(O)OP(=O)(O)OC[C@H]1O[C@@H](n2cnc3c(N)ncnc32)[C@H](O)[C@@H]1OP(=O)(O)O)C(N)=O` [CoA-ESEL-NH2, CoA-Ac-ESEL-NH2] ({Pantoyl(4-O-3'-P-ADP)-βAla}-[NHCH2CH2SCH2CO]ESEL-NH2), the IC50 against MBP-hNAA80 [2] stood at 11.5 ± 3.23 µM.
`CC(C)C[C@H](NC(=O)[C@H](CCC(=O)O)NC(=O)[C@H](CC(=O)O)NC(=O)[C@@H]1CCCN1C(=O)CSCCNC(=O)CCNC(=O)[C@H](O)C(C)(C)COP(=O)(O)OP(=O)(O)OC[C@H]1O[C@@H](n2cnc3c(N)ncnc32)[C@H](O)[C@@H]1OP(=O)(O)O)C(N)=O` [CoA-PDEL-NH2, CoA-Ac-PDEL-NH2] ({Pantoyl(4-O-3'-P-ADP)-βAla}-[NHCH2CH2SCH2CO]PDEL-NH2) yielded a half-inhibitory concentration (IC50) on MBP-hNAA80 [2] of 13.4 ± 2.24 µM.
As for “CoA-EEEI-NH2: previously reported bisubstrate inhibitor: coenzyme A conjugated via acetyl linker to tetrapeptide amide EEEI (γ-actin N-terminus) (not fully specified; N-terminal amine acylated with acetyl linker thioether-bonded to coenzyme A sulfur (CoA-S-CH2-CO-); C-terminal amide)”, in the test with MBP-hNAA80 [1], the IC50 is 1.16 ± 0.11 µM.
Regarding “CoA-MDEL-NH2: previously reported bisubstrate inhibitor: coenzyme A conjugated via acetyl linker to tetrapeptide amide MDEL (not fully specified; N-terminal amine acylated with acetyl linker thioether-bonded to coenzyme A sulfur (CoA-S-CH2-CO-); C-terminal amide)”, the IC50 with MBP-hNAA80 [1] is 1.26 ± 0.1 µM.
